Results as given in article PMC11251039, “Harnessing cholesterol uptake of malaria parasites for therapeutic applications” (EMBO Molecular Medicine, 2024).
Values joined by “and” are separate entries in the source; they are usually repeats but may differ in a detail not shown here. Equal values may be shown once. Read-outs that look alike come from different tables or passages of the source.

Experiments:
[1] = system: P. falciparum CAM3.II ring stages (0–3 h post invasion); assay: Plasmodium falciparum ring stage survival assay, resistant strain; type: cell-based; details: for Ring stage survival, individual data points (Figure 4C): CAM3.11, replicate experiments
Protocol: (§1) Following tight synchronisation using sorbitol and Percoll® floatation, ring stage CAM3.II and CAM3.IIREV parasites (0–3 h post invasion) at 1% parasitaemia and 2% haematocrit were incubated with 700 nM of compounds or solvent-only controls for exactly 6 h, before removing the drug, thoroughly washing in RPMI with HEPES, and returning to culture conditions for a further 66 h. Some cells were treated with 700 nM artesunate for 72 h as a no-growth control. DNA replication (indicating growth) was measured at the specified time using SYBR Safe DNA Stain. Microscope slide smears of each condition were stained with 10% v/v Giemsa and examined under a light microscope (×1000 magnification); with ‘viable’ (morphologically normal) and ‘non-viable’ (morphologically aberrant; vacuolated or pyknotic) parasites distinguished according to standard protocol (Witkowski et al, [2013]). Images were captured using a Leica ICC50 camera, with a resolution of 76 nm per pixel, and cropped from larger images using Fiji ImageJ.
(§2) Appendix Fraser/Curtis et al.
(§3) Cells were detached from a flask using 0.25% Trypsin with 0.2 g/L EDTA (Sigma T4049) and washed with culture media containing no phenol red. Cells were incubated with a serial dilution of each compound, or media/DMSO alone. The protein synthesis inhibitor cycloheximide (Sigma 01810) at 10 µg/mL was used as a positive control to determine background absorbance. 5,000 cells were seeded in each well. After 96 hours, 0.45 mg/mL methylthiazolyldiphenyl-tetrazolium bromide (MTT; Sigma M2128) was added and incubated for a further two hours, before mixing 1.1:1 with 10% w/v sodium dodecyl sulfate (SDS) to solubilise crystals and freezing the plate at -18 °C to stop the assay. Plates were defrosted at room temperature and absorbance was read at 570 nm in an Infinite M1000 pro plate reader […]
(§4) Plasmodium falciparum Ring Stage Survival Assay
(§5) Ring stage survival assays were conducted according to standard protocols with some modifications (27, 28). CAM3.11 and CAM3.11REV parasites were sorbitol synchronised twice, 12 hours apart, and then incubated for a further 30 hours until the majority of the parasites were mature schizonts (with clearly separated nuclei). Pelleted RBCs were incubated at 37 °C with heparinised RPMI for 15 minutes, and then centrifuged over 75% Percoll® in PBS for 15 minutes at 1,000 g. Mature schizonts were collected, washed with warm RPMI, and cultured for exactly three hours with fresh uRBCs and culture media. After 3 hours, the cultures were sorbitol synchronised and incubated in duplicate with 700 nM of artesunate, PAYb076a, GGA5, HJB8a53, a DMSO solvent-only control or media alone for exactly six hours, before removing the drug, washing in RPMI, and returning to culture conditions. Samples of each cell suspension were transferred to a -18 °C freezer at the start of the assay (time = 0) or treated for the entire 72 hours with 700 nM artesunate to determine background fluorescence under no-growth conditions. After a further 66 hours of incubation (totalling 72 hours), cells were […]
(§6) resuspended, and a sample from each well was transferred to a fresh plate and frozen at -18 °C.
(§7) Microscope slide smears were made using the remaining cells and stained with 10% v/v Giemsa. Plates were thawed and SYBR Safe DNA Gel Stain (final concentration 1/10,000) diluted in lysis buffer (as above) was added for DNA detection at 490 nm excitation / 520 nm emission on a FLUOstar Optima fluorescence plate reader. Parasite proliferation and viability were also assessed using Giemsa-stained smears examined under a light microscope (1,000× magnification); with ‘viable’ and ‘non-viable’ (vacuolated or pyknotic) parasites distinguished according to standard protocol. Images were captured using a Leica ICC50 camera, with a resolution of 76 nm per pixel.
(§8) Growth inhibition data were normalised by subtracting background fluorescence, […]

[2] = system: P. falciparum CAM3.IIREV ring stages (0–3 h post invasion); assay: Plasmodium falciparum ring stage survival assay, susceptible revertant strain; type: cell-based; details: for Parasite morphology in Giemsa-stained smears: 700 nM, 6 h treatment, 66 h further growth, CAM3.IIREV susceptible; for Ring stage survival, individual data points (Figure 4C): CAM3.11REV, replicate experiments
Protocol: as §1, §2, §3, §4, §5, §6, §7, §8

[3] = system: asexual P. falciparum CAM3.II (Resistant); assay: P. falciparum asexual growth inhibition assay, resistant strain; type: cell-based; details: Plasmodium falciparum, 72 h, read-out: IC50, P. falciparum asexual growth inhibition
Protocol: (§9) P. falciparum asexual parasite assays commenced with ring-stage parasites at 1% parasitaemia and 1% haematocrit. 200 nM chloroquine (Sigma C6628) or artesunate (Sigma A3731) was used as a no-growth control. DNA replication (indicating growth) was measured at the specified time using SYBR Safe DNA Gel Stain (Invitrogen 33102) and a fluorescence microplate reader (Smilkstein et al, [2004]; Spry et al, [2013]).
as §2
(§10) Growth and Viability Inhibition Assays:
(§11) Plasmodium falciparum Growth Inhibition Assays:
(§12) P. falciparum parasites were maintained under routine culture conditions in red blood cells and RPMI 1640-Hepes with Glutamax, supplemented with 10 mM D-glucose, 480 μM hypoxanthine, 20 μg/mL gentamicin, 0.375% (w/v) AlbuMAXTM II (Thermo Fisher 11021029), and 2.5% v/v heat-inactivated human serum (17). Cultures were maintained at 37 °C […]
(§13) Growth inhibition was investigated according to methods described by Smilkstein et al. (19) with modifications by Spry et al. (20). […] 200 nM chloroquine (Sigma C6628) or artesunate (Sigma A3731) was used as a positive control to determine background fluorescence. The parasitaemia of a culture containing predominantly ring stage parasites was counted by Giemsa smear. […] Fluorescence was detected at 490 nm excitation/ 520 nm emission on a FLUOstar Optima fluorescence plate reader (BMG Labtech).

[4] = system: asexual P. falciparum 3D7 wild-type parasites; assay: P. falciparum asexual growth inhibition assay (SYBR Safe DNA replication); type: cell-based, Plasmodium falciparum; details: Plasmodium falciparum, 72 h, 3D7 (Susceptible), read-out: IC50, P. falciparum asexual growth inhibition
Protocol: as §9, with “[2013]). […]” for “[2013]).”
as §10, §11, §12
wildtype parasites except for the ring stage survival assay, as specified. Cultures were synchronised with 5% w/v D-sorbitol (18).
Growth inhibition was investigated according to methods described by Smilkstein et al. (19) with modifications by Spry et al. (20). Compounds or solvent controls (DMSO, ethanol, or ethyl acetate) were serially diluted 2-fold across flat-bottom 96-well plates. Culture media without compound was used as a negative control. 200 nM chloroquine (Sigma C6628) or artesunate (Sigma A3731) was used as a positive control to determine background fluorescence. The parasitaemia of a culture containing predominantly ring stage parasites was counted by Giemsa smear. The parasitaemia was adjusted to 1% by addition of fresh uRBCs and added to the plate at a final haematocrit of 1%, with 200 µL per well. The plates were incubated at 37 °C under humid microaerophilic conditions. After 24, 48, or 72 hours, the plates were transferred to a -18 °C freezer to stop the assay and lyse cells. Plates were thawed and lysate was mixed 1:1 with SYBR Safe DNA Gel Stain (Invitrogen 33102) (final concentration 1/10,000) diluted in lysis buffer (20 mM TRIS, 5 mM EDTA, 0.008% w/v Saponin, 0.08% w/v Triton-X 100, pH 7.5). Fluorescence was detected at 490 nm excitation/ 520 nm emission on a FLUOstar Optima fluorescence plate reader (BMG Labtech).

[5] = parameters: method as in Morris et al, 2011; details: ref Morris et al, 2011; cited from earlier work
[6] = system: asexual P. falciparum CAM3.IIREV (Susceptible); assay: P. falciparum asexual growth inhibition assay, revertant strain; type: cell-based; details: Plasmodium falciparum, 72 h, read-out: IC50, P. falciparum asexual growth inhibition
Protocol: as §9, §2, §10, §11, §12, §13

[7] = 700 nM, 6 h treatment, 66 h further growth, CAM3.II resistant

Row | SMILES | Parasite morphology in Giemsa-stained smears [1, 7] | Ring stage survival, individual data points (Figure 4C) ([1]; listed as GGA5) | Parasite morphology in Giemsa-stained smears [2] | Ring stage survival, individual data points (Figure 4C) ([2]; listed as GGA5) | IC50 ([3]; CAM3.II (Resistant)) [nM] | IC50 [4] [nM] | Half-life in blood [5] [min] | Proportion of resistant parasites surviving treatment (DNA replication) ([1]; 700 nM, 6 h treatment, 66 h further growth, CAM3.II) | Ring stage survival, individual data points (Figure 4C) [1] | Ring stage survival, individual data points (Figure 4C) [2] | IC50 [6] [nM] | IC50 [3] [nM] | IC50 ([4]; 3D7, 72 h) [nM] | Ring stage survival, growth [1, 7] | Ring stage survival, individual data points (Figure 4C) ([1]; listed as PAYb076a) | Ring stage survival, individual data points (Figure 4C) ([2]; listed as PAYb076a)
1 | CC(C)OC(=O)CCC(=O)OC1OC2OC3(C)CCC4C(C)CCC(C1C)C24OO3 (stereo not drawn) [ART-link] | a combination of morphologically normal parasites (green arrows) and morphologically aberrant pyknotic or vacuolated forms | 38.82 and -2.964 and -8.71 and 33.42 | only morphologically aberrant parasites were present | -11.62 and -13.91 and -17.49 and -9.785 |  |  |  |  |  |  |  |  |  |  |  | 
2 | C[C@H]1[C@H](OC(=O)CCC(=O)O)O[C@@H]2O[C@@]3(C)CC[C@H]4[C@H](C)CC[C@@H]1[C@@]24OO3 [Artesunate, artesunate, reference compound] | a combination of morphologically normal parasites (green arrows) and morphologically aberrant pyknotic or vacuolated forms |  | only morphologically aberrant parasites were present |  | 6.7 | 6.7 | 30 to 90 | ~ 30% | 35.31 and 54.58 and 24.97 and 17.6 | -6.969 and -6.239 and -6.353 and -8.044 | 5.7 |  |  |  |  | 
3 | CC1CCC2C(C)C(OC(=O)CCC(=O)OC3CCC4C5CC=C6CC(O)CCC6(C)C5CCC34C)OC3OC4(C)CCC1C32OO4 (stereo not drawn) [C-17-ART] | only aberrant, non-viable parasites were visible |  | only morphologically aberrant parasites were present |  |  |  |  |  |  |  | 11 | 10.5 | 10.6 | complete growth inhibition | 5.574 and -1.717 and 1.804 and -19.52 | -3.583 and -11.02 and -24.87 and -14.11
